US7910305B2, “Methods for screening for compounds that modulate insulin promoter activity” (The Burnham Institute for Medical Research, priority 2005, dated 2011)
Peptide text beside a SMILES is read from it. * marks the point of attachment. Cbz = O=C(OCc1ccccc1)*

Columns and labels:
[1] = system: human insulin gene (hINS) promoter-eGFP reporter in MIN6 mouse insulinoma cells; assay: insulin promoter-destabilized eGFP reporter fluorescence in engineered MIN6 cells; format: cell-based; conditions: 384-well plates, three-fold titration series, imaged 48 hours after compound addition
Description: We have developed a screen for small molecule compounds that modulate insulin promoter activity. Identifying these compounds and eventually their targets should provide insights into the signaling pathways that control insulin expression. The assay is based upon a mouse insulinoma, MIN6, that normally expresses insulin mRNA. This cell was engineered to stably contain two cassettes that use a fluorescent reporter protein to monitor insulin promoter activity and a housekeeping gene activity. The primary assay is to detect compounds that alter expression of an insulin promoter-destabilized eGFP reporter cassette in mouse insulinoma (MIN6) cells relative to that of a housekeeping gene, heat shock protein 68, the promoter of which is used in a second cassette to direct expression of destabilized dsRED2. […]
Engineering of MIN6 for Image-Based, High Throughput Screening. […] Viral supernatants harvested at 24 to 72 hours were 0.45 μm filtered and concentrated 100- to 200-fold by ultrafiltration using Centricon Plus-80 units (Millipore, Bedford, Mass., USA), yielding titers of approximately 10^9 transducing units (TU) per milliliter 5, determined by transduction of 293T cells with serial dilutions of the pRRL.SIN-18.cPPT.hPGK-EGFP.WPRE viral supernatant and FACS analysis to determine the percentage of EGFP-expressing cells. […]

insulin mRNA = assay: RT-PCR for endogenous insulin mRNA in T6PN/E47MER cells; format: cell-based, human
Description: (A) Insulin mRNA is barely detectable by non-quantitative RT-PCR in the absence of tamoxifen in two biological replicates of T6PN/E47^MER cells.
Cells were exposed to 5 micromolar compound and also had 0.5 micromolar tamoxifen. […] […] Both GFP and insulin mRNA levels are normalized for GAPDH mRNA to rule out nonspecific effects of the compounds on transcription.
(§1) To increase the level of insulin expression, TRM-6 cells expressing PDX-1 and NeuroD1 (T6PN cells) (Follenzi et al., Nature Genet. 25:217-222, 2000) were infected with an E47^MER retroviral vector and selected by FACS. E47^MER consists of the class I bHLH factor E47 which is a potent insulin transactivator fused to a mutated estrogen receptor that renders it functional only in the presence of tamoxifen. […] To determine whether the effects of E47 were limited to insulin expression or had more general effects on beta-cell differentiation, a panel of other beta-cell genes was examined. […] Thus, T6PN/E47^MER cells express a substantial number of important beta-cell genes, making them an appropriate target for the insulin promoter screens described herein.
Second Confirmatory Assay. Compounds that passed the primary confirmatory assay were passed on for further testing in a secondary confirmatory assay. This consisted of RT-PCR of GFP and endogenous insulin mRNA (FIG. 7). Both GFP and endogenous insulin RT-PCR assays are performed because of the possibility that a compound may affect the 1.4 kb insulin promoter transgene but not the endogenous insulin promoter, which may be under more complex control.

myosin heavy chain gene = assay: RT-PCR for myosin heavy chain gene in T6PN/E47MER cells; format: cell-based, human
[2] = system: human insulin promoter-eGFP reporter in T6PN/E47MER cells; assay: insulin promoter-eGFP reporter fluorescence in T6PN/E47MER cells; format: cell-based; conditions: T6PN/E47MER cells infected with insulin promoter-eGFP lentiviral vector
Description: as §1
Assay Protocol. The following is a detailed assay protocol for the primary assay, i.e., first assay performed in a testing scheme to identify biologically active chemical entities in a screening mode: […]

| Structure (SMILES) | eGFP fluorescence [1] | insulin mRNA (RT-PCR), positive control (insulin mRNA; 4 micromolar tamoxifen control) | insulin mRNA by non-quantitative RT-PCR (insulin mRNA; T6PN/E47MER cells with versus without tamoxifen, two biological replicates) | insulin mRNA by quantitative real-time RT-PCR (insulin mRNA; T6PN/E47MER cells, E47 activity induced by tamoxifen, two biological replicates) | induction of insulin gene expression (insulin mRNA; induction of E47 activity (E47MER functional only with tamoxifen) in T6PN cells) | myosin heavy chain gene induction (myosin heavy chain gene) | eGFP induction [2] |
| --- | --- | --- | --- | --- | --- | --- | --- |
| CC(C)C[C@@H](C=O)NC(=O)[C@H](CC(C)C)NC(=O)[C@H](CC(C)C)NC(=O)OCc1ccccc1 [MG132] (Cbz-Leu-Leu-Leu-aldehyde) | dose-dependent increase in eGFP fluorescence | – | – | – | – | – | – |
| CC/C(=C(\c1ccccc1)c1ccc(OCCN(C)C)cc1)c1ccccc1 [tamoxifen] | – | maximum induction of insulin mRNA | strongly induced | dramatic upregulation of insulin mRNA | 100 fold | not induced | High levels of eGFP |
| C[C@@H]1C[C@@H]([C@H](O)CC2CC(=O)NC(=O)C2)C(=O)[C@@H](C)C1 [cyclohexamide] | decrease in fluorescence intensity | – | – | – | – | – | – |
